Values belong to the molecule of their own block, whether it stands above or below them.
Experiments:
[1] = tested on: PSMA-expressing LNCAP cancer xenografts; assay: Biodistribution of ^68Ga-labeled PSMA-targeting tracers; assay type: in vivo, mice
Description: (§1) Imaging and biodistribution experiments were performed using NODSCID 1L2RγKO male mice. Mice were anesthetized by inhalation with 2% isoflurane in oxygen, and implanted subcutaneously with 1×10^7 LNCaP cells behind left shoulder. Mice were imaged or used in biodistribution studies when the tumor grew up to reach 5-8 mm in diameter during 5-6 weeks.
(§2) PET imaging experiments were conducted using Siemens Inveon micro PET/CT scanner. Each tumor bearing mouse was injected 6-8 MBq of Ga-68 labeled tracer through the tail vein under anesthesia (2% isoflurane in oxygen). The mice were allowed to recover and roam freely in their cage. After 50 min, the mice were sedated again with 2% isoflurane in oxygen inhalation and positioned in the scanner. A 10-min CT scan was conducted first for localization and attenuation correction after segmentation for reconstructing the PET images. Then, a 10-min static PET imaging was performed to determined uptake in tumor and other organs. The mice were kept warm by a heating pad during acquisition. For imaging studies acquired at 3 h post-injection (p.i.), the mice were placed in the micro PET/CT scanner at 170 min p.i. Then, the CT acquisitions were conducted as described above, a 15-min static PET imaging was performed to determined uptake in tumor and other organs.
For biodistribution studies, the mice were injected with the radiotracer as described above. At predetermined time points (1 or 3 h for ^68Ga studies; 1, 4, 24, 72, or 120 h for ^177Lu studies), the mice was anesthetized with 2% isoflurane inhalation, and euthanized by CO2 inhalation. Blood was withdrawn immediately from the heart, and the organs/tissues of interest were collected. The collected organs/tissues were weighed and counted using a Perkin Elmer (Waltham, MA) Wizard2 2480 gamma counter. The uptake in each organ/tissue was normalized to the injected dose using a standard curve, and expressed as the percentage of the injected dose per gram of tissue (% ID/g).

[2] = tested on: LNCaP tumors; assay: PET/CT imaging of ^68Ga-labeled tracers; assay type: in vivo, mice; conditions: FIG. 3
Description: as §1, §2

Tissue (% ID/g): Adrenal glands ([1]; 1 h post-injection): 8.90 ± 2.56 % ID/g
Tissue (% ID/g): Blood ([1]; 1 h post-injection): 1.43 ± 0.30 % ID/g
Tissue (% ID/g): Bone ([1]; 1 h post-injection): 1.29 ± 0.45 % ID/g
Tissue (% ID/g): Brain ([1]; 1 h post-injection): 0.10 ± 0.05 % ID/g
Tissue (% ID/g): Fat ([1]; 1 h post-injection): 2.06 ± 0.59 % ID/g
Tissue (% ID/g): Heart ([1]; 1 h post-injection): 1.82 ± 0.21 % ID/g
Tissue (% ID/g): Intestine ([1]; 1 h post-injection): 1.14 ± 0.18 % ID/g
Tissue (% ID/g): Kidneys ([1]; 1 h post-injection): 170 ± 26.4 % ID/g
Tissue (% ID/g): Lacrimal ([1]; 1 h post-injection): 2.44 ± 1.79 % ID/g
Tissue (% ID/g): Liver ([1]; 1 h post-injection): 1.38 ± 0.25 % ID/g
Tissue (% ID/g): Lungs ([1]; 1 h post-injection): 4.32 ± 0.62 % ID/g
Tissue (% ID/g): Muscle ([1]; 1 h post-injection): 0.75 ± 0.09 % ID/g
Tissue (% ID/g): Pancreas ([1]; 1 h post-injection): 1.47 ± 0.16 % ID/g
Tissue (% ID/g): Salivary ([1]; 1 h post-injection): 4.99 ± 0.88 % ID/g
Tissue (% ID/g): Seminal ([1]; 1 h post-injection): 1.03 ± 0.27 % ID/g
Tissue (% ID/g): Spleen ([1]; 1 h post-injection): 8.95 ± 3.22 % ID/g
Tissue (% ID/g): Stomach ([1]; 1 h post-injection): 0.41 ± 0.11 % ID/g
Tissue (% ID/g): Tail ([1]; 1 h post-injection): 1.36 ± 0.45 % ID/g
Tissue (% ID/g): Testes ([1]; 1 h post-injection): 1.34 ± 0.22 % ID/g
Tissue (% ID/g): Thyroid ([1]; 1 h post-injection): 2.48 ± 0.44 % ID/g
Tissue (% ID/g): Tumor ([1]; 1 h post-injection): 23.1±6.11 % ID/g
Tissue (% ID/g): Urine ([1]; 1 h post-injection): 173 ± 93.01 % ID/g
tumor-to-background contrast ratio Tumor: Blood ([1]; 1 h post-injection): 17.3 ± 7.24
tumor-to-background contrast ratio Tumor: Muscle ([1]; 1 h post-injection): 31.6 ± 12.1
tumor-to-background contrast ratio Tumor: kidney ([1]; 1 h post-injection): 0.14 ± 0.04
Tissue (% ID/g): Adrenal glands ([1]; 3 h post-injection): 4.04 ± 1.20 % ID/g
Tissue (% ID/g): Blood ([1]; 3 h post-injection): 0.83 ± 0.27 % ID/g
Tissue (% ID/g): Bone ([1]; 3 h post-injection): 0.98 ± 0.40 % ID/g
Tissue (% ID/g): Brain ([1]; 3 h post-injection): 0.06 ± 0.02 % ID/g
Tissue (% ID/g): Fat ([1]; 3 h post-injection): 1.06 ± 0.20 % ID/g
Tissue (% ID/g): Heart ([1]; 3 h post-injection): 0.93 ± 0.17 % ID/g
Tissue (% ID/g): Intestine ([1]; 3 h post-injection): 0.67 ± 0.09 % ID/g
Tissue (% ID/g): Kidneys ([1]; 3 h post-injection): 121 ± 37.6 % ID/g
Tissue (% ID/g): Lacrimal ([1]; 3 h post-injection): 2.82 ± 3.84 % ID/g
Tissue (% ID/g): Liver ([1]; 3 h post-injection): 0.82 ± 0.15 % ID/g
Tissue (% ID/g): Lungs ([1]; 3 h post-injection): 2.14 ± 0.39 % ID/g
Tissue (% ID/g): Muscle ([1]; 3 h post-injection): 0.40 ± 0.06 % ID/g
Tissue (% ID/g): Pancreas ([1]; 3 h post-injection): 0.71 ± 0.12 % ID/g
Tissue (% ID/g): Salivary ([1]; 3 h post-injection): 2.11 ± 0.57 % ID/g
Tissue (% ID/g): Seminal ([1]; 3 h post-injection): 4.56 ± 9.00 % ID/g
Tissue (% ID/g): Spleen ([1]; 3 h post-injection): 4.19 ± 1.58 % ID/g
Tissue (% ID/g): Stomach ([1]; 3 h post-injection): 0.26 ± 0.06 % ID/g
Tissue (% ID/g): Tail ([1]; 3 h post-injection): 0.86 ± 0.73 % ID/g
Tissue (% ID/g): Testes ([1]; 3 h post-injection): 0.89 ± 0.12 % ID/g
Tissue (% ID/g): Thyroid ([1]; 3 h post-injection): 1.19 ± 0.23 % ID/g
Tissue (% ID/g): Tumor ([1]; 3 h post-injection): 28.2±9.17 % ID/g
Tissue (% ID/g): Urine ([1]; 3 h post-injection): 171 ± 93.3 % ID/g
tumor-to-background contrast ratio Tumor: Blood ([1]; 3 h post-injection): 36.6 ± 15.4
tumor-to-background contrast ratio Tumor: Muscle ([1]; 3 h post-injection): 73.8 ± 30.9
tumor-to-background contrast ratio Tumor: kidney ([1]; 3 h post-injection): 0.26 ± 0.13
SMILES: O=C([O-])CN1CCN(CC(=O)[O-])CCN(CC(=O)NC[C@H]2CC[C@H](C(=O)N[C@@H](Cc3c4ccccc4cc4ccccc34)C(=O)NCCCC[C@H](NC(=O)N[C@@H](CCC(=O)O)C(=O)O)C(=O)O)CC2)CCN(CC(=O)[O-])CC1.[68Ga+3] [^68Ga-HTK03041]
uptake in PET/CT images [2]: higher uptake was observed in LNCap tumor xenografts, kidneys and urinary bladders

Tissue (% ID/g): Adrenal glands ([1]; 1 h post-injection): 4.91 ± 1.57 % ID/g
Tissue (% ID/g): Blood ([1]; 1 h post-injection): 3.93 ± 0.91 % ID/g
Tissue (% ID/g): Bone ([1]; 1 h post-injection): 0.92 ± 0.14 % ID/g
Tissue (% ID/g): Brain ([1]; 1 h post-injection): 0.09 ± 0.02 % ID/g
Tissue (% ID/g): Fat ([1]; 1 h post-injection): 1.57 ± 0.42 % ID/g
Tissue (% ID/g): Heart ([1]; 1 h post-injection): 1.25 ± 0.27 % ID/g
Tissue (% ID/g): Intestine ([1]; 1 h post-injection): 0.77 ± 0.11 % ID/g
Tissue (% ID/g): Kidneys ([1]; 1 h post-injection): 198 ± 49.3 % ID/g
Tissue (% ID/g): Lacrimal ([1]; 1 h post-injection): 1.06 ± 0.49 % ID/g
Tissue (% ID/g): Liver ([1]; 1 h post-injection): 1.32 ± 0.63 % ID/g
Tissue (% ID/g): Lungs ([1]; 1 h post-injection): 3.59 ± 0.69 % ID/g
Tissue (% ID/g): Muscle ([1]; 1 h post-injection): 0.63 ± 0.10 % ID/g
Tissue (% ID/g): Pancreas ([1]; 1 h post-injection): 0.94 ± 0.18 % ID/g
Tissue (% ID/g): Salivary ([1]; 1 h post-injection): 3.27 ± 1.02 % ID/g
Tissue (% ID/g): Seminal ([1]; 1 h post-injection): 6.74 ± 10.7 % ID/g
Tissue (% ID/g): Spleen ([1]; 1 h post-injection): 7.08 ± 5.08 % ID/g
Tissue (% ID/g): Stomach ([1]; 1 h post-injection): 0.31 ± 0.08 % ID/g
Tissue (% ID/g): Tail ([1]; 1 h post-injection): 2.18 ± 0.65 % ID/g
Tissue (% ID/g): Testes ([1]; 1 h post-injection): 1.02 ± 0.13 % ID/g
Tissue (% ID/g): Thyroid ([1]; 1 h post-injection): 1.57 ± 0.32 % ID/g
Tissue (% ID/g): Tumor ([1]; 1 h post-injection): 13.9 ± 6.58 % ID/g
Tissue (% ID/g): Urine ([1]; 1 h post-injection): 175 ± 178 % ID/g
tumor-to-background contrast ratio Tumor: Blood ([1]; 1 h post-injection): 3.39 ± 1.01
tumor-to-background contrast ratio Tumor: Muscle ([1]; 1 h post-injection): 21.3 ± 7.50
tumor-to-background contrast ratio Tumor: kidney ([1]; 1 h post-injection): 0.07 ± 0.02
Tissue (% ID/g): Tumor ([1]; 1 h post-injection, listed as 68Ga-labeled HTK03029): ~13 % ID/g
SMILES: O=C([O-])CN1CCN(CC(=O)[O-])CCN(CC(=O)NC[C@H]2CC[C@H](C(=O)N[C@@H](Cc3ccc4ccc5cccc6ccc3c4c56)C(=O)NCCCC[C@H](NC(=O)N[C@@H](CCC(=O)O)C(=O)O)C(=O)O)CC2)CCN(CC(=O)[O-])CC1.[68Ga+3] [^68Ga-HTK03029]
uptake in PET/CT images [2]: higher uptake was observed in LNCap tumor xenografts, kidneys and urinary bladders

Reference: patent publication US12472272B2, “Radiolabelled compounds for diagnosis or treatment of prostate-specific membrane antigen- expressing cancer” (PROVINCIAL HEALTH SERVICES AUTHORITY, priority 2019, dated 2025)
